Assay results taken from ChEMBL document CHEMBL1139278 (2009).
Converted amounts (≈) assume the structure as drawn.

Tests used:
Format in all cases: functional
Staphylococcus aureus [1] = test: Antimicrobial activity against methicillin-susceptible Staphylococcus aureus Smith by NCCLS method
Staphylococcus aureus [2] = test: Antimicrobial activity against methicillin-resistant Staphylococcus aureus KMP9
Streptococcus pneumoniae [3] = test: Antimicrobial activity against penicillin-susceptible Streptococcus pneumoniae ATCC 49619 by NCCLS method
Streptococcus pneumoniae [4] = test: Antimicrobial activity against penicillin-resistant Streptococcus pneumoniae KT2524 by NCCLS method
Streptococcus pyogenes = test: Antimicrobial activity against Streptococcus pyogenes ATCC 112344 by NCCLS method
Enterococcus faecium = test: Antimicrobial activity against vancomycin-resistant Enterococcus faecium KU1778 by NCCLS method
Moraxella catarrhalis = test: Antimicrobial activity against Moraxella catarrhalis K1209 by NCCLS method
Haemophilus influenzae = test: Antimicrobial activity against Haemophilus influenzae TH13 by NCCLS method
Staphylococcus aureus [5] = test: Antimicrobial activity against methicillin-susceptible Staphylococcus aureus infected iv dosed mouse assessed as survival rate after 1 hr of infection

Structure (SMILES) | MIC (Staphylococcus aureus [1]) | MIC (Staphylococcus aureus [2]) | MIC (Streptococcus pneumoniae [3]) | MIC (Streptococcus pneumoniae [4]) | MIC (Streptococcus pyogenes) | MIC (Enterococcus faecium) | MIC (Moraxella catarrhalis) | MIC (Haemophilus influenzae) | ED50 (Staphylococcus aureus [5])
C=C[C@]1(C)C[C@@H](OC(=O)CN2CCN(C(=O)CCn3cnc4c(N5CCC(N)C5)ncnc43)CC2)[C@]2(C)[C@H](C)CC[C@]3(CCC(=O)[C@@H]32)[C@@H](C)[C@@H]1O.Cl.Cl (stereo not given in full) | 0.25 µg/mL | 1 µg/mL | 0.063 µg/mL | 0.063 µg/mL | 0.032 µg/mL | 0.5 µg/mL | 0.25 µg/mL | 4 µg/mL | 0.8 mg/kg
C=C[C@]1(C)C[C@@H](OC(=O)CN2CCN(C(=O)CCn3cnc4c(N5CCC(N)C5)ncnc43)C(CC)C2)[C@]2(C)[C@H](C)CC[C@]3(CCC(=O)[C@@H]32)[C@@H](C)[C@@H]1O.Cl.Cl (stereo not given in full) | 0.25 µg/mL | 0.25 µg/mL | 0.063 µg/mL | 0.063 µg/mL | 0.032 µg/mL | 0.125 µg/mL | 0.125 µg/mL | 4 µg/mL | 2.95 mg/kg
C=C[C@]1(C)C[C@@H](OC(=O)CN2CCN(C(=O)CCn3cnc4c(N5CC[C@@H](CNC)C5)ncnc43)CC2)[C@]2(C)[C@H](C)CC[C@]3(CCC(=O)[C@@H]32)[C@@H](C)[C@@H]1O.Cl.Cl | 0.25 µg/mL | 2 µg/mL | 0.125 µg/mL | 0.125 µg/mL | 0.063 µg/mL | 0.5 µg/mL | 0.125 µg/mL | 2 µg/mL | 1.18 mg/kg
C=C[C@]1(C)C[C@@H](OC(=O)CN2CCN(C(=O)CCn3cnc4c(N5CCC(N)CC5)ncnc43)CC2)[C@]2(C)[C@H](C)CC[C@]3(CCC(=O)[C@@H]32)[C@@H](C)[C@@H]1O.Cl.Cl | 0.25 µg/mL | 1 µg/mL | 0.125 µg/mL | 0.125 µg/mL | 0.032 µg/mL | 0.25 µg/mL | 0.125 µg/mL | 2 µg/mL | 0.97 mg/kg
C=C[C@]1(C)C[C@@H](OC(=O)CN2CCN(C(=O)CCn3cnc4c(N5CCC(CN)CC5)ncnc43)CC2)[C@]2(C)[C@H](C)CC[C@]3(CCC(=O)[C@@H]32)[C@@H](C)[C@@H]1O.Cl.Cl | 0.25 µg/mL | 1 µg/mL | 0.125 µg/mL | 0.125 µg/mL | 0.032 µg/mL | 0.25 µg/mL | 0.125 µg/mL | 2 µg/mL | 1.51 mg/kg
C=C[C@]1(C)C[C@@H](OC(=O)CN2CCN(C(=O)CCn3cnc4c(N5CCC(N)C5)ncnc43)[C@@H](C)C2)[C@]2(C)[C@H](C)CC[C@]3(CCC(=O)[C@@H]32)[C@@H](C)[C@@H]1O.Cl.Cl (stereo not given in full) | 0.125 µg/mL | 0.25 µg/mL | 0.032 µg/mL | 0.063 µg/mL | 0.032 µg/mL | 0.125 µg/mL | 0.125 µg/mL | 2 µg/mL | 1.47 mg/kg
C=C[C@]1(C)C[C@@H](OC(=O)CN2CCN(C(=O)CCn3cnc4c(N5CC[C@H](CNC)C5)ncnc43)[C@@H](C)C2)[C@]2(C)[C@H](C)CC[C@]3(CCC(=O)[C@@H]32)[C@@H](C)[C@@H]1O.Cl.Cl | 0.25 µg/mL | 0.5 µg/mL | 0.063 µg/mL | 0.063 µg/mL | 0.032 µg/mL | 0.25 µg/mL | 0.125 µg/mL | 2 µg/mL | 1.1 mg/kg
C=C[C@]1(C)C[C@@H](OC(=O)CN2CCN(C(=O)CCn3cnc4c(N5CCC(N)CC5)ncnc43)[C@@H](C)C2)[C@]2(C)[C@H](C)CC[C@]3(CCC(=O)[C@@H]32)[C@@H](C)[C@@H]1O.Cl.Cl | 0.25 µg/mL | 0.5 µg/mL | 0.063 µg/mL | 0.063 µg/mL | 0.032 µg/mL | 0.125 µg/mL | 0.125 µg/mL | 4 µg/mL | 1.66 mg/kg
C=C[C@]1(C)C[C@@H](OC(=O)CN2CCN(C(=O)CCn3cnc4c(N5CCC(N(C)C)C5)ncnc43)CC2)[C@]2(C)[C@H](C)CC[C@]3(CCC(=O)[C@@H]32)[C@@H](C)[C@@H]1O.Cl.Cl (stereo not given in full) | 0.25 µg/mL | 0.25 µg/mL | 0.125 µg/mL | 0.063 µg/mL | 0.063 µg/mL | 0.125 µg/mL | 0.125 µg/mL | 4 µg/mL | 2.94 mg/kg
C=C[C@]1(C)C[C@@H](OC(=O)CN2CCN(C(=O)CCn3cnc4c(N5CCNCC5)ncnc43)CC2)[C@]2(C)[C@H](C)CC[C@]3(CCC(=O)[C@@H]32)[C@@H](C)[C@@H]1O.Cl.Cl | 0.125 µg/mL | 0.25 µg/mL | 0.063 µg/mL | 0.063 µg/mL | 0.032 µg/mL | 0.063 µg/mL | 0.063 µg/mL | 2 µg/mL | 1.65 mg/kg
C=C[C@]1(C)C[C@@H](OC(=O)CN2CCN(C(=O)CCn3cnc4c(N5CCC(N)C5)ncnc43)[C@H](C)C2)[C@]2(C)[C@H](C)CC[C@]3(CCC(=O)[C@@H]32)[C@@H](C)[C@@H]1O.Cl.Cl (stereo not given in full) | 0.25 µg/mL | 0.5 µg/mL | 0.125 µg/mL | 0.125 µg/mL | 0.063 µg/mL | 0.25 µg/mL | 0.25 µg/mL | 8 µg/mL | 2.21 mg/kg
C=C[C@]1(C)C[C@@H](OC(=O)CN2CCN(C(=O)CCn3cnc4c(N5CC[C@H](N)C5)ncnc43)[C@@H](C)C2)[C@]2(C)[C@H](C)CC[C@]3(CCC(=O)[C@@H]32)[C@@H](C)[C@@H]1O.Cl.Cl | 0.25 µg/mL | 0.5 µg/mL | 0.032 µg/mL | 0.032 µg/mL | 0.016 µg/mL | 0.125 µg/mL | 0.125 µg/mL | 4 µg/mL | 1.1 mg/kg
C=C[C@]1(C)C[C@@H](OC(=O)CN2CCN(C(=O)CCn3cnc4c(N5CC[C@@H](N)C5)ncnc43)[C@@H](C)C2)[C@]2(C)[C@H](C)CC[C@]3(CCC(=O)[C@@H]32)[C@@H](C)[C@@H]1O.Cl.Cl | 0.125 µg/mL | 0.25 µg/mL | 0.032 µg/mL | 0.032 µg/mL | 0.016 µg/mL | 0.125 µg/mL | 0.125 µg/mL | 2 µg/mL | 1.56 mg/kg
C=C[C@]1(C)C[C@@H](OC(=O)CN2CCN(C(=O)CCn3cnc4c(N5CCC(NCC)C5)ncnc43)CC2)[C@]2(C)[C@H](C)CC[C@]3(CCC(=O)[C@@H]32)[C@@H](C)[C@@H]1O.Cl.Cl (stereo not given in full) | 0.25 µg/mL | 0.5 µg/mL | 0.125 µg/mL | 0.125 µg/mL | 0.063 µg/mL | 0.25 µg/mL | 0.125 µg/mL | 4 µg/mL | 2.21 mg/kg
C=C[C@]1(C)C[C@@H](OC(=O)CN2CCN(C(=O)CCn3cnc4c(N5CCC(CN)C5)ncnc43)CC2)[C@]2(C)[C@H](C)CC[C@]3(CCC(=O)[C@@H]32)[C@@H](C)[C@@H]1O.Cl.Cl (stereo not given in full) | 0.25 µg/mL | 2 µg/mL | 0.063 µg/mL | 0.125 µg/mL | 0.032 µg/mL | 1 µg/mL | 0.5 µg/mL | 4 µg/mL | 1.21 mg/kg
C=C[C@]1(C)C[C@@H](OC(=O)CN2CCCN(C(=O)CCn3cnc4c(N5CCC(N)C5)ncnc43)CC2)[C@]2(C)[C@H](C)CC[C@]3(CCC(=O)[C@@H]32)[C@@H](C)[C@@H]1O.Cl.Cl (stereo not given in full) | 0.5 µg/mL | 1 µg/mL | 0.063 µg/mL | 0.063 µg/mL | 0.032 µg/mL | 0.25 µg/mL | 0.25 µg/mL | 4 µg/mL | 2.51 mg/kg
C=C[C@]1(C)C[C@@H](OC(=O)CN2CCN(C(=O)CCn3cnc4c(N5CC[C@H](CNC)C5)ncnc43)CC2)[C@]2(C)[C@H](C)CC[C@]3(CCC(=O)[C@@H]32)[C@@H](C)[C@@H]1O.Cl.Cl | 0.25 µg/mL | 2 µg/mL | 0.125 µg/mL | 0.063 µg/mL | 0.032 µg/mL | 0.5 µg/mL | 0.125 µg/mL | 0.5 µg/mL | 0.83 mg/kg
C=C[C@]1(C)C[C@@H](OC(=O)CN2CCN(C(=O)CCn3cnc4c(N5CCC(CNC)C5)ncnc43)CC2)[C@]2(C)[C@H](C)CC[C@]3(CCC(=O)[C@@H]32)[C@@H](C)[C@@H]1O.Cl.Cl (stereo not given in full) | 0.25 µg/mL | 2 µg/mL | 0.125 µg/mL | 0.125 µg/mL | 0.032 µg/mL | 1 µg/mL | 0.5 µg/mL | 4 µg/mL | 1.1 mg/kg
C=C[C@]1(C)C[C@@H](OC(=O)CN2CCN(C(=O)CCn3cnc4c(N5CCC(N)C5)ncnc43)C(C)C2)[C@]2(C)[C@H](C)CC[C@]3(CCC(=O)[C@@H]32)[C@@H](C)[C@@H]1O.Cl.Cl (stereo not given in full) | 0.25 µg/mL | 0.25 µg/mL | 0.032 µg/mL | 0.032 µg/mL | 0.032 µg/mL | 0.125 µg/mL | 0.125 µg/mL | 2 µg/mL | 1.39 mg/kg
C=C[C@]1(C)C[C@@H](OC(=O)CN2CCN(C(=O)CCn3cnc4c(N5CCC(CNC)C5)ncnc43)[C@@H](C)C2)[C@]2(C)[C@H](C)CC[C@]3(CCC(=O)[C@@H]32)[C@@H](C)[C@@H]1O.Cl.Cl (stereo not given in full) | 0.125 µg/mL | 1 µg/mL | 0.063 µg/mL | 0.032 µg/mL | 0.063 µg/mL | 0.25 µg/mL | 0.125 µg/mL | 2 µg/mL | 1.2 mg/kg
C=C[C@]1(C)C[C@@H](OC(=O)CN2CCN(C(=O)CCn3cnc4c(N5CCC(NC)C5)ncnc43)CC2)[C@]2(C)[C@H](C)CC[C@]3(CCC(=O)[C@@H]32)[C@@H](C)[C@@H]1O.Cl (stereo not given in full) | 0.25 µg/mL | 1 µg/mL | 0.063 µg/mL | 0.125 µg/mL | 0.032 µg/mL | 0.25 µg/mL | 0.25 µg/mL | 4 µg/mL | 1.3 mg/kg
CN[C@H](CC(C)C)C(=O)N[C@H]1C(=O)N[C@@H](CC(N)=O)C(=O)N[C@H]2C(=O)N[C@H]3C(=O)N[C@H](C(=O)N[C@H](C(=O)O)c4cc(O)cc(O)c4-c4cc3ccc4O)[C@H](O)c3ccc(c(Cl)c3)Oc3cc2cc(c3O[C@@H]2O[C@H](CO)[C@@H](O)[C@H](O)[C@H]2O[C@H]2C[C@](C)(N)[C@H](O)[C@H](C)O2)Oc2ccc(cc2Cl)[C@H]1O [VANCOMYCIN] | – | – | 0.25 µg/mL (≈ 0.173 µM) | 0.5 µg/mL (≈ 0.345 µM) | – | > 128 µg/mL | 64 µg/mL (≈ 44.2 µM) | > 128 µg/mL | 0.88 mg/kg
